Values joined by “and” are separate entries in the source; they are usually repeats but may differ in a detail not shown here. Equal entries are not always repeated.

In the experiment the target is SARS-CoV-2 Main Protease (SARS-CoV-2) (UniProt P0DTD1).
`CCc1n[nH]c(=O)c(-c2nc(-c3c[nH]c4ncccc34)cs2)c1CC`: the IC50 (in general, the concentration needed to halve the response being measured) was over 99.5 µM. As to `Cn1ncc2c(NC(=O)Cc3cccc(Cl)c3)cncc21`, the IC50 was 34 µM. As for `CCNC(=O)c1ccc(N(C(=O)c2cocn2)C(C(=O)NCCc2cccc(F)c2)c2cccnc2)cc1` (centres undefined), the figure is over 99.5 µM. As for `Cc1ccn2cnnc2c1NC(=O)C1CCOc2ccc(Cl)cc21` (centres undefined), the figure is over 99.5 µM; as for `O=C(NCCc1cccc(F)c1)C(c1cccnc1)N(C(=O)c1cocn1)C1Cc2ccccc21` (centres undefined), over 99.5 µM; as for `NC1CCc2c(NC(=O)C3CCOc4ccc(Cl)cc43)cncc21` (centres undefined), 25.8 µM. As for `O=C(NCCc1cccc(F)c1)C(c1cccnc1)N(C(=O)c1cocn1)c1ccc2c(c1)CCCS2(=O)=O` (centres undefined), the figure is over 99.5 µM; as for `CN(C)S(=O)(=O)N1CCc2ccc(Cl)cc2C1C(=O)Nc1cncc2ccccc12` (centres undefined), 1.97 µM. On to `Cc1cc(C)n(C2CCCN(C(=O)c3c[nH]c4ncccc34)C2)n1` (centres undefined), for which the IC50 is over 99.5 µM. In turn, `Cc1cc(N)ncc1NC(=O)Cc1cccc(Cl)c1` had a 50% inhibitory concentration (IC50) of over 99.5 µM. In the case of `CC(C)(C)NC(=O)CN1CC(C(=O)Nc2cncc3ccccc23)c2cc(Cl)ccc2C1=O` (centres undefined), the IC50 was determined as 0.523 µM. As for `Nc1nn(C(=O)Cc2cccc(Cl)c2)c2ccc(F)cc12`, the figure is over 99.5 µM. As for `N#CC1(CS(=O)(=O)N2Cc3ccc(Cl)cc3C3(CCN(c4cncc5ccc(OCCN6CCCC6)cc45)C3=O)C2)CC1` (centres undefined), the figure is 0.225 µM; as for `C=CC(=O)NCC(=O)N(Cc1ccccc1O)C[C@@H]1CCCO1` (stereo in doubt), over 99.5 µM; as for `Cc1cccc2cncc(N3CCC4(CCOc5ccc(Cl)cc54)C3)c12` (centres undefined), over 99.5 µM. On to `Cn1cnc2cc(N(C(=O)c3cnc[nH]3)C(C(=O)NCCc3cccc(F)c3)c3cccnc3)ccc21` (centres undefined), for which the half-inhibitory concentration (IC50) was over 99 µM. As for `N#Cc1cc(Cl)cc(NC(=O)Nc2cccnc2)c1`, the figure is over 99 µM.

`O=C(CN1CC(C(=O)Nc2cncc3ccccc23)c2cc(Cl)ccc2C1=O)NCC1CCC1` (centres undefined) had an IC50 of 0.107 µM. Compound `Cc1cn2ccc(C(=O)Nc3nc(-c4cnn(C)c4)cs3)cc2n1` gave an IC50 of over 99.5 µM.

In the case of `O=C(NCCc1ccccc1)[C@@H](c1ccccc1)N1Cc2ccccc2C1=O` (stereo in doubt), the IC50 was over 99.5 µM. As for `CCCCn1nnnc1CNC1CCc2nc(C(C)C)nn2C1` (centres undefined), the figure is over 99.5 µM; as for `CNC(=O)N1CCc2ccc(Cl)cc2C1C(=O)Nc1cncc2ccccc12` (centres undefined), 2.47 µM. As for `CN(Cc1ccc(Cl)cc1)c1cc(Cl)cc(CC(=O)Nc2cncc3ccccc23)c1`, the figure is 2.42 µM. As for `O=C(Cc1cccc(Cl)c1)NC1CC(=O)c2ccccc21` (centres undefined), the figure is 53.8 µM; as for `CCN(CC)S(=O)(=O)c1ccc(Nc2cc(Cl)cc(CC(=O)Nc3cncc4ccccc34)c2)cc1`, 2.15 µM. `CS(=O)(=O)Nc1ccc2cncc(NC(=O)C3CN(S(=O)(=O)CC4(C#N)CC4)Cc4ccc(Cl)cc43)c2c1` (centres undefined) showed an IC50 of 0.267 µM. As for `COc1ccc(C2CC(c3cccs3)=NN2C(=O)CCl)cc1OC` (centres undefined), the figure is 1.75 µM and 2 µM. As for `O=C(C1CCOc2cc(Cl)ccc21)N(Cc1c[nH]c(=O)[nH]c1=O)c1cncc2ccccc12` (centres undefined), the figure is 7.14 µM; as for `O=C(CC1(C(=O)Nc2cncc3ccccc23)CCOc2ccc(Cl)cc21)N1CCCCC1c1ccn[nH]1` (centres undefined), 0.616 µM; as for `Cc1ccncc1NC(=O)Cc1cc(Cl)cc(S(N)(=O)=O)c1`, 14.6 µM. With `CC(=O)N(CC(=O)Nc1ccc(F)c(Cl)c1)c1cccc(C#N)c1`, the IC50 is over 99.5 µM. As for `O=C(Nc1cncc2ccccc12)C1COCc2ccc(Cl)cc21` (centres undefined), the figure is 8.08 µM. As for `Cc1ccncc1NC(=O)Cc1cccc(F)c1`, the figure is 96.9 µM and 94.8 µM; as for `C=CC(=O)N(c1ccc(C(C)(C)C)cc1)C(C(=O)Nc1ccc(OC)cc1C)c1cccnc1` (centres undefined), over 99 µM. Turning to `CC(C)(C)Oc1ccncc1NC(=O)Cc1cccc(Cl)c1`, the IC50 was 22.9 µM. As for `O=C(Nc1ccc2ccccc2c1)[C@@H]1CN(C(=O)CCl)CCN1S(=O)(=O)c1ccsc1` (stereo in doubt), the figure is 0.523 µM; as for `O=C(Nc1cncc2ccccc12)C1CN(S(=O)(=O)CC2CC2)Cc2ccc(Cl)cc21` (centres undefined), 0.168 µM; as for `COc1ccccc1OC(C)CNC(=O)c1cc(=O)[nH]c2cc(F)ccc12` (centres undefined), over 99.5 µM. The compound `O=C(Cc1cccc(Cl)c1)Nc1cncc2[nH]ncc12` yielded an IC50 of 21.8 µM. As for `O=C(CCl)N1CCN(C2(c3cccc(Cl)c3)CC2)CC1`, the figure is 64.9 µM and 42.1 µM. As for `CC(C)(C(N)=O)c1ccc(N(Cc2ccsc2)C(=O)Cn2nnc3ccccc32)cc1`, the figure is 3.17 µM; as for `CCN(CC)S(=O)(=O)c1ccc(S(=O)(=O)N2CCN(S(N)(=O)=O)CC2)cc1`, over 99.5 µM. With `O=C1NC(c2ccc(Cl)c(Cl)c2)C(=O)N1c1cncc2ccccc12` (centres undefined), the IC50 amounted to 8.46 µM. For `O=C(Nc1n[nH]c2ccncc12)C1CCOc2ccc(Cl)cc21` (centres undefined), the IC50 was 70.3 µM. As for `CNC(=O)C1(N2Cc3ccc(Cl)cc3C3(CCN(c4cncc5ccc(OCCN(C)C)cc45)C3=O)C2)CC1` (centres undefined), the figure is 0.614 µM. As for `O=C(Cc1cccc(Cl)c1)Nc1cncc2oncc12`, the figure is 50.6 µM; as for `O=C(Cn1cn[nH]c1=O)NC1CCCCCC1c1ccccc1C(F)(F)F` (centres undefined), over 99.5 µM.

`CCCc1cc2c(cc1S(=O)(=O)N1CCN(c3ncccn3)CC1)OCO2`: the concentration for half-maximal inhibition (IC50) was over 99.5 µM. As for `Cc1ccncc1NC(=O)Cc1cc(Cl)cc(OCc2nn(C(=O)OC(C)(C)C)c3ccccc23)c1`, the figure is over 99.5 µM; as for `O=C(Nc1cncc2ccccc12)C1CN(CC2CC2)C(=O)c2ccc(Cl)cc21` (centres undefined), 0.381 µM; as for `CC(C)(C)c1ccc(-c2nnc(Sc3cnc([N+](=O)[O-])s3)o2)cc1`, 7.29 µM and 2.38 µM. As for `CNC(=O)CN1Cc2ccc(Cl)cc2C2(CCN(c3cncc4cccc(Cl)c34)C2=O)C1` (centres undefined), the figure is 3.28 µM. As for `O=C(Nc1cncc2ccccc12)c1ccnc2cc(Cl)c(Cl)cc12`, the figure is 28.1 µM; as for `Cc1nc2ccc(N(C(=O)c3cocn3)C(C(=O)NCCc3cccc(F)c3)c3cccnc3)cc2o1` (centres undefined), over 99.5 µM; as for `O=C(NC1N=Nc2ccccc21)C1CCOc2ccc(Cl)cc21` (centres undefined), over 99.5 µM. `Cc1cc2c(N3CCc4[nH]c5ccccc5c4C3)nccn2n1` came in with an IC50 of over 99.5 µM.

For the compound `O=C1NC[C@H](C(=O)Nc2cncc3ccccc23)c2cc(Cl)ccc21` (stereo in doubt), the IC50 is 0.185 µM. As for `CC(C)(O)c1cccc(N(C(=O)c2cocn2)C(C(=O)NCCc2cccc(F)c2)c2cccnc2)c1` (centres undefined), the figure is over 99.5 µM; as for `O=C(Nc1ccc(-c2nnc[nH]2)cc1)c1cccc(F)c1F`, over 99.5 µM; as for `O=C(Cc1cc(Cl)cc(N[C@@H](CO)Cc2ccccc2)c1)Nc1cncc2ccccc12` (stereo in doubt), 2.5 µM. `O=C(Cc1cc(Cl)cc(Nc2ccccc2I)c1)Nc1cncc2ccccc12` showed a 50% inhibitory concentration (IC50) of 2.17 µM. As for `COc1ccc(N(C(=O)c2cocn2)C(C(=O)NCCc2cccc(F)c2)c2cccnc2)cc1` (centres undefined), the figure is 22.2 µM; as for `O=C(Nc1cncc2ccccc12)C12CC(C1)Oc1ccc(Cl)cc12`, 56.4 µM. As for `O=C(Cc1ccc(Cl)c(Cl)c1)Nc1cncc2ccccc12`, the figure is 0.178 µM and 0.384 µM; as for `CS(=O)(=O)c1ccccc1C(=O)N1CCC(C2CCNC2)CC1` (centres undefined), over 99.5 µM. Compound `CNC(=O)CN1Cc2ccc(Cl)cc2C(C(=O)Nc2cncc3ccc(C(C)(C)O)cc23)C1` (centres undefined) gave an IC50 of 0.564 µM. As for `O=C(Nc1ccc(N(C(=O)c2cocn2)C(C(=O)NCCc2cccc(F)c2)c2cccnc2)cc1)NC1CC1` (centres undefined), the figure is over 99.5 µM; as for `COC1(CS(=O)(=O)N2Cc3ccc(Cl)cc3C3(CCN(c4cncc5ccc(OCCN(C)C)cc45)C3=O)C2)CC1` (centres undefined), 0.181 µM; as for `Cc1nc2cc(C(=O)NNc3ccnc4cccnc34)ccc2o1`, over 99.5 µM. As for `O=C(Nc1cncc2ccccc12)C1CCOc2c(OCc3ccccc3)cc(Cl)cc21` (centres undefined), the figure is 36.5 µM; as for `Cc1cn(-c2cc(Nc3cc(Cl)cc(CC(=O)Nc4cncc5ccccc45)c3)cc(C(F)(F)F)c2)cn1`, 2.53 µM; as for `O=C(Cc1cc(Cl)cc(Br)c1)Nc1cncc2ccccc12`, over 9.95 µM. As for `Cc1nc2ccc(NCc3cnc4ccccn34)cn2n1`, the figure is over 99.5 µM; as for `CC(C)Oc1ccc(N(C(=O)c2cnc[nH]2)C(C(=O)NCCc2cccc(F)c2)c2cccnc2)cc1` (centres undefined), 0.857 µM and 0.592 µM; as for `O=C(Nc1cnc2ccccn12)C1CCOc2ccc(Cl)cc21` (centres undefined), 3.26 µM. For the compound `Cn1nc(C(=O)N2CCOCC2)cc1C(=O)N(c1ccc(C(C)(C)C)cc1)C(C(=O)NCCc1cccc(F)c1)c1cccnc1` (centres undefined), the IC50 was determined as 92.1 µM. `CC(C)(C)c1ccc(N(C(=O)c2ccco2)C(C(=O)NCCc2cccc(F)c2)c2snc3ccccc23)cc1` (centres undefined): the IC50 came out at 5.33 µM.

`Cc1nc2ccc(N(C(=O)c3cnc[nH]3)C(C(=O)NCCc3cccc(F)c3)c3cccnc3)cc2o1` (centres undefined) showed an IC50 of over 99 µM. As for `O=C(Cc1cc(Cl)cc(Nc2ccc(F)cc2Br)c1)Nc1cncc2ccccc12`, the figure is 2.04 µM. As for `CN(C)c1ccc(C(Cc2ccsc2)C(=O)Nn2cnc3ccccc32)cc1` (centres undefined), the figure is over 99.5 µM.

In turn, `O=C1OC2(CCOc3ccc(Cl)cc32)C(=O)N1c1cncc2ccccc12` (centres undefined) showed a half-maximal inhibitory concentration (IC50) of over 99.5 µM.

Turning to `COc1cc(CNc2cc(Cl)cc(CC(=O)Nc3cncc4ccccc34)c2)cc(OC)c1`, the IC50 amounted to 2.87 µM. As for `O=C(NCCc1cccc(F)c1)C(c1cccnc1)N(C(=O)c1cnc[nH]1)c1ccc(OC(F)F)cc1` (centres undefined), the figure is 22.1 µM. As for `O=C1CC(c2ccc(N(C(=O)c3cocn3)C(C(=O)NCCc3cccc(F)c3)c3cccnc3)cc2)CC(=O)N1` (centres undefined), the figure is 53.8 µM; as for `COc1cc(Nc2cc(Cl)cc(CC(=O)Nc3cncc4ccccc34)c2)cc(OC)c1`, 1.96 µM; as for `O=C(CN(C(=O)Cn1ccnn1)c1ccc(-c2ccccn2)cc1)N1CCNCC1`, over 99.5 µM.

As to `CC(C)(C)c1ccc(N(C(=O)CCC#N)C(C(=O)NCCc2cccc(F)c2)c2cccnc2)cc1` (centres undefined), the IC50 turned out to be 3.8 µM. As for `CSCCCNC(=O)C(c1cccnc1)N(C(=O)c1cocn1)c1ccc(C(C)(C)C)cc1` (centres undefined), the figure is 3.85 µM. `Cc1c(Cl)cc(S(=O)(=O)N2CC=C(c3c[nH]c4ncccc34)CC2)cc1[N+](=O)[O-]` showed an IC50 of over 99.5 µM.

For the origin of these results see the COVID Moonshot data (paper PMC7615835).
